This is an account of results in US8034817B2, “Treatment of bacterial diseases of the respiratory organs” (Bayer Pharma Aktiengesellschaft, priority 2003, dated 2011).

Data set [1] concerns P. aeruginosa DSM 12055. In words: Efficacy in a model of lung infection with P. aeruginosa, treatment 1 and 4 hours after infection, microbe count in the lungs. In kind it is in vivo, P. aeruginosa (host: female Wistar rats). The note with it: lungs after 24 h relative to untreated infection control, average for 5 animals. How it is done: Efficacy in a Model of Lung Infection with P. aeruginosa
[…]. Various dose groups each of 5 rats were employed. The animals were sacrificed 24 hours after the infection, and the lungs were removed and homogenized with a Potter from Braun. The homogenates were plated out to determine the microbe count in the lungs.

The conditions of data set [2]: average for 3 animals.
In data set [3] the test system is P. aeruginosa DSM 12055. In words: Further test with P. aeruginosa DSM 12055, single intratracheal dry powder treatment, microbe count in the lungs. The data set is classed as in vivo, P. aeruginosa (host: rats). The note with it: single intratracheal treatment 1 hour after infection, 10 mg/kg, DP-3 dry powder insufflator. How it is done: A dose of 10 mg/kg was administered with the aid of a DP-3 dry powder insufflator (PENN-CENTURY, INC.). It is known from control investigations that about 5 to 20% of the administered dose reach the lungs.

For data set [4] the following is noted: rats; serum and lungs.
Setting [5] is: 0.5 h, 7.5 mg/kg intratracheally as suspension, 7.5 mg/kg.
Setting [6] is: 1 h, 7.5 mg/kg intratracheally as suspension, 7.5 mg/kg.
[7] abbreviates: 3 h, 7.5 mg/kg intratracheally as suspension, 7.5 mg/kg.
The mark [8] stands for this setting: 5 h, 7.5 mg/kg intratracheally as suspension, 7.5 mg/kg.

Counter-ions that a name gives are not always drawn. Like-named read-outs stand apart in the source and are kept apart here.

In the case of `O=C(O)c1cn(C2CC2)c2cc(N3CCNCC3)c(F)cc2c1=O` [ciprofloxacin betaine (laboratory product)], the “Reduction in microbe count” value is listed as −4.0 log units in data set [1] (0.8 mg/kg i.t.), −5.8 log units in data set [1] (2.5 mg/kg i.t.) and −10 log units in data set [1] (7.5 mg/kg i.t.). Moreover, the Lung concentration came to 44.3 µg/mL in data set [2] (setting [5]), 40.1 µg/mL in data set [2] (setting [6]), 12.6 µg/mL in data set [2] (setting [7]) and 7.21 µg/mL in data set [2] (setting [8]).
`O=C(O)c1cn(C2CC2)c2cc(N3CCNCC3)c(F)cc2c1=O` [ciprofloxacin betaine (micronized), ciprofloxacin betaine]: the “Reduction of the microbe count in the lungs compared with an untreated control group” value in data set [3] is “more than 6 log units”. Moreover, the Lung concentration was determined as 76 µg/mL in data set [2] (0.25 h, 7.5 mg/kg intratracheally as suspension, 7.5 mg/kg); 76 µg/mL in data set [2] (setting [5]); 76 µg/mL in data set [2] (setting [6]); 54 µg/mL in data set [2] (setting [7]); 54 µg/mL in data set [2] (setting [8]).
As for `COc1c(N2C[C@@H]3CCCN[C@@H]3C2)c(F)cc2c(=O)c(C(=O)O)cn(C3CC3)c12` [moxifloxacin hydrochloride, Moxifloxacin hydrochloride], in data set [4], the “Fall of the concentration after intratracheal administration to the level reached orally” value is listed as “within about an hour”.
In the case of `Cl.O=C(O)c1cn(C2CC2)c2cc(N3CCNCC3)c(F)cc2c1=O` [ciprofloxacin hydrochloride], the “Reduction in microbe count” value in data set [1] (0.8 mg/kg i.t.) is −1.8 log units; in data set [1] (2.5 mg/kg i.t.), −1.1 log units; in data set [1] (2.5 mg/kg i.v.), −2.8 log units; in data set [1] (7.5 mg/kg i.t.), −2.8 log units; in data set [1] (7.5 mg/kg i.v.) it was −3.5 log units; in data set [1] (22.5 mg/kg i.v.), −5.4 log units. Further, the “Reduction in microbe count” value in data set [1] (67.5 mg/kg i.v.) was −8.8 log units. The Lung concentration came to 0.61 µg/mL in data set [2] (0.25 h, 7.5 mg/kg intravenously as solution); 1.67 µg/mL in data set [2] (0.5 h, 7.5 mg/kg intratracheally as solution); 0.35 µg/mL in data set [2] (0.5 h, 7.5 mg/kg intravenously as solution); 0.63 µg/mL in data set [2] (1 h, 7.5 mg/kg intratracheally as solution); 0.14 µg/mL in data set [2] (1 h, 7.5 mg/kg intravenously as solution); 0.10 µg/mL in data set [2] (3 h, 7.5 mg/kg intratracheally as solution). Besides, the Lung concentration in data set [2] (3 h, 7.5 mg/kg intravenously as solution) worked out at 0 µg/mL; in data set [2] (5 h, 7.5 mg/kg intratracheally as solution), 0 µg/mL; in data set [2] (5 h, 7.5 mg/kg intravenously as solution) it was 0 µg/mL.
